Assays:
L-1210 leukemia cells [1] = test: Bioassay of tumorigenicity of in vitro treated tumor cells in syngeneic hosts; assay type: in vivo; conditions: BDf1 mice surviving 45 days
B-95-8 B-lymphoma = test: Tumor cell survival (trypan blue), continuous exposure; assay type: cell-based, Marmorset
ALL (N cell leukemia) = test: Survival of fresh human leukemic cells, continuous exposure; assay type: cell-based; conditions: for % tumor cell survival: ALL
L-1210 leukemia cells [2] = test: Tumor cell survival after pulse treatment; assay type: cell-based, Mouse; conditions: for Percent Tumor Cell Survival: viability 24 hr later
Experimental: All rabbit, marmoset and human lymphoid in vitro cell lines, murine L-1210 leukemia and primary human leukemias were treated at cell concentrations of 6-10×10^5 cells/ml. The tripeptide was added to the cell suspensions to yield final concentrations of 1 to 50 ug/ml. Cultures were treated at 37° C. for periods ranging between 15 min to 24 hr. Following treatment, aliquots were removed and centrifuged at 800 rpm for 9 min, at 5° C. Treatment media were gently aspirated and the lymphoid cells resuspended in fresh growth media and reincubated at 37° C. Culture media were changed daily by gently pelleting the cells and exchanging 60-70% of the spent supernatant with fresh media.
Survival of tumor cell layers or suspensions was ascertained using 0.5% trypan blue in 0.1M phosphate-buffered saline, pH 7.25. Cell layers were released from the Multidish-4 wells with 0.5 ml STV, diluted 2 to 10 fold with the vital strain; tumor cells in suspension cultures were directly mixed 1:1 with the trypan blue dye. Tumor cells were enumerated using a haemocytometer; all 10 fields were counted for every sample. Percent viable cells was determined by direct comparison of the numbers of cells excluding trypan blue in treated cultures to those in untreated or diluent-treated parallel cultures. There were no significant differences in the viability of cells treated with diluent when compared to untreated cells.
To delineate the minimum concentration and duration of the tripeptide compound exposure to induce cytolysis, MJY-alpha and B-16 melanoma cell layers and L-1210 leukemia cell suspensions were exposed to 0.5 to 50 ug of the tripeptide compound per ml of solvent for 0.25 to 4 hours. The tripeptide compound was then removed and the cells washed and reincubated in media growth. Tumor cell viability was determined 24 hrs after pulse tripeptide compound exposure. Cell survival of all three tumor cell lines was reduced by an exposure period of as short as 15 min (Table 4). The degree of cytolysis increased with extension of the treatment periods from 15 min to 4 hrs, although the decreases in cell survival were not proportional to the duration of the exposure. […] Comparison of the data in Tables 2 and 4 reveal that cells exposed to the tripeptide compound for one hour were irreversibly damaged when assayed a day later despite their apparent viability immediately after treatment.
The reversibility of the cancericidal activity of the tripeptide compounds on L-1210 leukemia, MJY-alpha mammary tumor and B-16 melanoma cells was also monitored in the nonhostile tissue culture environment. Cell suspensions of these tumor models were treated with tripeptide for 15 to 240 min, washed and either inoculated into mice or maintained as suspension (L-1210) or monolayer cultures (MJY-alpha and B-16). Reductions in tumor cells survival were negligible (0-6%) in all three tumor systems at initiation of in vitro cultures following treatment with 50 ug tripeptide/ml for as long as 4 hrs. However, significant decreases in cellular viabilities of L-1210 leukemia (FIG. 9), MJY-alpha mammary tumor (FIG. 10) and B-16 melanoma (FIG. 11) tumor cells were observed 24 hr following tripeptide exposure and for the next 6 days.

[3] = system: MJY-alpha mammary tumor cells; test: Bioassay of tumorigenicity of in vitro treated tumor cells in syngeneic hosts; assay type: in vivo, BALB/c mice; conditions: for MEAN SURVIVAL TIME (MST) of recipients: control 42
Source text: Suspensions of untreated and tripeptide treated MJY-alpha mammary tumor, B-16 melanoma, and L-1210 leukemia cells were adjusted to a concentration of 1×10^7 cells/ml based on the initial tumor cell concentration before the tripeptide exposure. Tumor cells were inoculated into syngeneic hosts at a concentration of 1×10^6 cells in […]. Female BALB/c/Crgl recipients of MJY-alpha mammary tumor cells and male C57BL/6/Jx hosts receiving B16 melanoma cells were inoculated subcutaneously; BDf1 mice were given intraperitoneal injections of L-1210 cells. Subcutaneous tumors were measured along their long and short axes every 1 to 3 days; tumor size is reported as the product of the two measurements (mm^2). The examination periods for mice receiving L-1210, MJY-alpha and B-16 tumor grafts were 45, 80, and 85 days, respectively. All mice were autopsied at the time of death or sacrifice.

P388/L-PAM leukemia = test: cells; assay type: cell-based, mice
[4] = system: MJY-alpha mammary tumor cells; test: PTT.119 induced resistance test, long-term low dose culture; assay type: cell-based

SMILES: CCOC(=O)[C@H](CCSC)NC(=O)[C@H](Cc1cccc(N(CCCl)CCCl)c1)NC(=O)[C@@H](N)Cc1ccc(F)cc1.Cl [PTT.119, 3-(p-fluorophenyl)-L-alanyl-3-[m-bis(2-chloroethyl)aminophenyl]-L-alanyl-L-methionine ethyl ester hydrochloride]
- protection of surviving hosts against second graft of 1000 untreated L-1210 cells (L-1210 leukemia cells [1]): did not confer protection
- % tumor cell survival (B-95-8 B-lymphoma; 10 ug/ml, 1 hr): 100%
- % tumor cell survival (B-95-8 B-lymphoma; 10 ug/ml, 4 hr): 100%
- % tumor cell survival (B-95-8 B-lymphoma; 10 ug/ml, 24 hr): 40%
- % tumor cell survival (B-95-8 B-lymphoma; 25 ug/ml, 1 hr): 100%
- % tumor cell survival (B-95-8 B-lymphoma; 25 ug/ml, 4 hr): 86%
- % tumor cell survival (B-95-8 B-lymphoma; 25 ug/ml, 8 hr): 49%
- % tumor cell survival (B-95-8 B-lymphoma; 25 ug/ml, 24 hr): 20%
- % tumor cell survival (B-95-8 B-lymphoma; 50 ug/ml, 1 hr): 77%
- % tumor cell survival (B-95-8 B-lymphoma; 50 ug/ml, 4 hr): 42%
- % tumor cell survival (B-95-8 B-lymphoma; 50 ug/ml, 8 hr): 26%
- % tumor cell survival (B-95-8 B-lymphoma; 50 ug/ml, 24 hr): 6%
- reduction of cell survival (ALL (N cell leukemia); ALL lymphoblasts, as low as 1 ug): 75%
- % tumor cell survival (ALL (N cell leukemia); 1 ug/ml, 1 hr): 98%
- % tumor cell survival (ALL (N cell leukemia); 1 ug/ml, 4 hr): 76%
- % tumor cell survival (ALL (N cell leukemia); 1 ug/ml, 24 hr): 25%
- % tumor cell survival (ALL (N cell leukemia); 5 ug/ml, 1 hr): 46%
- % tumor cell survival (ALL (N cell leukemia); 5 ug/ml, 4 hr): 29%
- % tumor cell survival (ALL (N cell leukemia); 5 ug/ml, 24 hr): 7%
- % tumor cell survival (ALL (N cell leukemia); 10 ug/ml, 1 hr): 32%
- % tumor cell survival (ALL (N cell leukemia); 10 ug/ml, 4 hr): 15%
- % tumor cell survival (ALL (N cell leukemia); 10 ug/ml, 24 hr): 0%
- % tumor cell survival (ALL (N cell leukemia); 25 ug/ml, 1 hr): 15%
- % tumor cell survival (ALL (N cell leukemia); 25 ug/ml, 4 hr): 15%
- % tumor cell survival (ALL (N cell leukemia); 25 ug/ml, 24 hr): 0%
- % tumor cell survival (ALL (N cell leukemia); 50 ug/ml, 1 hr): 0%
- % tumor cell survival (ALL (N cell leukemia); 50 ug/ml, 4 hr): 0%
- % tumor cell survival (ALL (N cell leukemia); 50 ug/ml, 24 hr): 0%
- Percent Tumor Cell Survival (L-1210 leukemia cells [2]; L-1210, 1 ug/ml, pulse 1 hr): 83%
- Percent Tumor Cell Survival (L-1210 leukemia cells [2]; L-1210, 1 ug/ml, pulse 2 hr): 78%
- Percent Tumor Cell Survival (L-1210 leukemia cells [2]; L-1210, 1 ug/ml, pulse 4 hr): 45%
- Percent Tumor Cell Survival (L-1210 leukemia cells [2]; L-1210, 1 ug/ml, pulse .25 hr): 80%
- Percent Tumor Cell Survival (L-1210 leukemia cells [2]; L-1210, 1 ug/ml, pulse .5 hr): 87%
- Percent Tumor Cell Survival (L-1210 leukemia cells [2]; L-1210, 5 ug/ml, pulse 1 hr): 61%
- Percent Tumor Cell Survival (L-1210 leukemia cells [2]; L-1210, 5 ug/ml, pulse 2 hr): 57%
- Percent Tumor Cell Survival (L-1210 leukemia cells [2]; L-1210, 5 ug/ml, pulse 4 hr): 35%
- Percent Tumor Cell Survival (L-1210 leukemia cells [2]; L-1210, 5 ug/ml, pulse .25 hr): 72%
- Percent Tumor Cell Survival (L-1210 leukemia cells [2]; L-1210, 5 ug/ml, pulse .5 hr): 60%
- Percent Tumor Cell Survival (L-1210 leukemia cells [2]; L-1210, 10 ug/ml, pulse 1 hr): 27%
- Percent Tumor Cell Survival (L-1210 leukemia cells [2]; L-1210, 10 ug/ml, pulse 2 hr): 31%
- Percent Tumor Cell Survival (L-1210 leukemia cells [2]; L-1210, 10 ug/ml, pulse 4 hr): 37%
- Percent Tumor Cell Survival (L-1210 leukemia cells [2]; L-1210, 10 ug/ml, pulse .25 hr): 53%
- Percent Tumor Cell Survival (L-1210 leukemia cells [2]; L-1210, 10 ug/ml, pulse .5 hr): 40%
- Percent Tumor Cell Survival (L-1210 leukemia cells [2]; L-1210, 20 ug/ml, pulse 1 hr): 0%
- Percent Tumor Cell Survival (L-1210 leukemia cells [2]; L-1210, 20 ug/ml, pulse .25 hr): 0%
- Percent Tumor Cell Survival (L-1210 leukemia cells [2]; L-1210, 20 ug/ml, pulse .5 hr): 0%
- Percent Tumor Cell Survival (L-1210 leukemia cells [2]; L-1210, 25 ug/ml, pulse 1 hr): 0%
- Percent Tumor Cell Survival (L-1210 leukemia cells [2]; L-1210, 25 ug/ml, pulse 2 hr): 0%
- Percent Tumor Cell Survival (L-1210 leukemia cells [2]; L-1210, 25 ug/ml, pulse 4 hr): 0%
- Percent Tumor Cell Survival (L-1210 leukemia cells [2]; L-1210, 25 ug/ml, pulse .25 hr): 20%
- Percent Tumor Cell Survival (L-1210 leukemia cells [2]; L-1210, 25 ug/ml, pulse .5 hr): 7%
- reductions in tumor cell survival at initiation of in vitro cultures (L-1210 leukemia cells [2]; L-1210, 50 ug/ml for as long as 4 hrs (all three tumor systems)): 0-6%
- Percent Tumor Cell Survival (L-1210 leukemia cells [2]; L-1210, .5 ug/ml, pulse 1 hr): 83%
- Percent Tumor Cell Survival (L-1210 leukemia cells [2]; L-1210, .5 ug/ml, pulse 2 hr): 94%
- Percent Tumor Cell Survival (L-1210 leukemia cells [2]; L-1210, .5 ug/ml, pulse 4 hr): 68%
- Percent Tumor Cell Survival (L-1210 leukemia cells [2]; L-1210, .5 ug/ml, pulse .25 hr): 95%
- Percent Tumor Cell Survival (L-1210 leukemia cells [2]; L-1210, .5 ug/ml, pulse .5 hr): 90%
- L-1210 cells destroyed compared to mammary tumor and melanoma cells (L-1210 leukemia cells [2]; any given concentration, 30 min or 1 hr pulse, 5 days): approximately 5 times
- tumor growth in recipients ([3]; 10^6 MJY-alpha cells treated with 25 ug or higher for 30 to 240 min): complete absence of tumor growth
- MEAN SURVIVAL TIME (MST) of recipients ([3]; MJY-alpha, 5 ug/ml, 60 min): 52 days
- MEAN SURVIVAL TIME (MST) of recipients ([3]; MJY-alpha, 5 ug/ml, 120 min): 43 days
- MEAN SURVIVAL TIME (MST) of recipients ([3]; MJY-alpha, 10 ug/ml, 30 min): 44 days
- MEAN SURVIVAL TIME (MST) of recipients ([3]; MJY-alpha, 10 ug/ml, 60 min): 46 days
- MEAN SURVIVAL TIME (MST) of recipients ([3]; MJY-alpha, 10 ug/ml, 120 min): 61 days
- MEAN SURVIVAL TIME (MST) of recipients ([3]; MJY-alpha, 25 ug/ml, 30 min): 56 days
- initial lag period between inoculation and appearance of palpable tumors ([3]; MJY-alpha, increasing dosages, 2 hr treatment): lengthened
- reduction of viable tumor cell population ([3]; MJY-alpha, inferred from LD100 of 100 viable cells): at least 99.9%
- tumor growth rates of untreated and treated cells ([3]; MJY-alpha, once graft established): identical
- T.C.D.100 (P388/L-PAM leukemia): 22.5
- surviving fraction at end of examination period (P388/L-PAM leukemia): 0-0.5%
- percentage of viable cells (P388/L-PAM leukemia; 3.75 µM): 0-1%
- IC50 (P388/L-PAM leukemia; Mus musculus, P388, 24 h, read-out: T.C.D.50): 5 µM
- survival of monolayers in continuous treatment ([4]; 15 uM): did not survive beyond the second passage
- dose response curves of treated lines vs previously untreated MJY-alpha cells ([4]; alpha-0.15, alpha-1.5, alpha-7.5, 8 months, 24 h challenge with 1.5-75 uM): No alteration

Source: patent US4740501A (priority 1985, dated 1988)
